Assay results from paper PMC12951562, “SH2scan: Mapping SH2 Domain-Ligand Binding Selectivity for Inhibitors and Degraders” (Journal of Medicinal Chemistry, 2026).
Read-outs that look alike come from different tables or passages of the source. Non-standard residues stand in square brackets, D forms with d. Residues, ends and D or L forms follow the SMILES beside them. *: point of attachment. pY = N[C@@H](Cc1ccc(OP(=O)(O)O)cc1)C(=O)O; Caffeoyl = O=C(/C=C/c1ccc(O)c(O)c1)*

Legend:
Test in all cases: biochemical
Type in all cases: binding
SH3BP2 = molecular target: T1, SH3BP2 (Homo sapiens, UniProt P78314); conditions: for remaining activity at 10 µM: read-out: percent of DMSO vehicle control
T1 construct: made in house; host or cells: HEK293 (transient transfection), unpurified extract
T1 sequence (P78314 1-561): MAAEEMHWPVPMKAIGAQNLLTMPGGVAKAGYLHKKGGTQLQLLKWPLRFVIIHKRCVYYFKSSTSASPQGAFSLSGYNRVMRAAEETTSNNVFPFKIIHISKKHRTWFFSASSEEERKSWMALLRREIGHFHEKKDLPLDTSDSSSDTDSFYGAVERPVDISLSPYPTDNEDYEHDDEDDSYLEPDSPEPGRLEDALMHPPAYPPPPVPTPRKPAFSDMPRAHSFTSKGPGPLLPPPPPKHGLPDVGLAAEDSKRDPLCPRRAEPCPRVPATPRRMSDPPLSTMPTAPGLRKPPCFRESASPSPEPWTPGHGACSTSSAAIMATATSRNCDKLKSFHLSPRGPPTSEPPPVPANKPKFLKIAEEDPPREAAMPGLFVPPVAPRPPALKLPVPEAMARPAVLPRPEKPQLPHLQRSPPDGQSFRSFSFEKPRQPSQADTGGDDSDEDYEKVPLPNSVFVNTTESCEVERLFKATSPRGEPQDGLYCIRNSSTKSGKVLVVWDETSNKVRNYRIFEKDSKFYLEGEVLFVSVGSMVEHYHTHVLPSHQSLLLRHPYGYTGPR

CBLB = molecular target: T2, CBLB (Homo sapiens, UniProt Q13191); conditions: for percent of DMSO vehicle control: primary screen, 10 μM
T2 construct: the DNA-tagged SH2 domain concentrations used in this study were <0.1 nM; made in house; host or cells: HEK293 (transient transfection; unpurified extract)

CSK = molecular target: T3, CSK (Homo sapiens, UniProt P41240); conditions: primary screen, 10 μM
T3 construct: the DNA-tagged SH2 domain concentrations used in this study were <0.1 nM; made in house; host or cells: HEK293 (transient transfection; unpurified extract)
T3 sequence (P41240 82-171 limits assumed): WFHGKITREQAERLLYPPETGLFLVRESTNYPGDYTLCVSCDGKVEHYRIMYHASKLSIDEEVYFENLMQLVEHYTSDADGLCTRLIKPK

GRB10 = molecular target: T4, GRB10 (Homo sapiens, UniProt Q13322)
T4 construct: the DNA-tagged SH2 domain concentrations used in this study were <0.1 nM; made in house; host or cells: HEK293 (transient transfection; unpurified extract)
T4 sequence (Q13322 493-574 limits assumed): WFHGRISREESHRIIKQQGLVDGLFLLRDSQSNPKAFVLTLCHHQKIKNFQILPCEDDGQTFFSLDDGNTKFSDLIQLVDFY

LYN = molecular target: T5, LYN (Homo sapiens, UniProt P07948); conditions: for remaining activity at 10 µM: read-out: percent of DMSO vehicle control
T5 construct: the DNA-tagged SH2 domain concentrations used in this study were <0.1 nM; made in house; host or cells: HEK293 (transient transfection, unpurified extract)

PLCG1(SH2dom.N-term.) = molecular target: T6, PLCG1(SH2dom.N-term.) (Homo sapiens, UniProt P19174); conditions: for remaining activity at 10 µM: read-out: percent of DMSO vehicle control
T6 construct: SH2dom.N-term. denotes SH2 domain closest to N-terminus of protein; made in house; host or cells: HEK293 (transient transfection, unpurified extract)
T6 sequence (P19174 550-657 limits assumed): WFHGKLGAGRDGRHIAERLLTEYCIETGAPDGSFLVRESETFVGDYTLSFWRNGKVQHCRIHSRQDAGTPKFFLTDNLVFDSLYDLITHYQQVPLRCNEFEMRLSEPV

SLP76 = molecular target: T7, SLP76 (Homo sapiens, UniProt Q13094); conditions: for remaining activity at 10 µM: read-out: percent of DMSO vehicle control
T7 construct: made in house; host or cells: HEK293 (transient transfection), unpurified extract
T7 sequence (Q13094 1-533): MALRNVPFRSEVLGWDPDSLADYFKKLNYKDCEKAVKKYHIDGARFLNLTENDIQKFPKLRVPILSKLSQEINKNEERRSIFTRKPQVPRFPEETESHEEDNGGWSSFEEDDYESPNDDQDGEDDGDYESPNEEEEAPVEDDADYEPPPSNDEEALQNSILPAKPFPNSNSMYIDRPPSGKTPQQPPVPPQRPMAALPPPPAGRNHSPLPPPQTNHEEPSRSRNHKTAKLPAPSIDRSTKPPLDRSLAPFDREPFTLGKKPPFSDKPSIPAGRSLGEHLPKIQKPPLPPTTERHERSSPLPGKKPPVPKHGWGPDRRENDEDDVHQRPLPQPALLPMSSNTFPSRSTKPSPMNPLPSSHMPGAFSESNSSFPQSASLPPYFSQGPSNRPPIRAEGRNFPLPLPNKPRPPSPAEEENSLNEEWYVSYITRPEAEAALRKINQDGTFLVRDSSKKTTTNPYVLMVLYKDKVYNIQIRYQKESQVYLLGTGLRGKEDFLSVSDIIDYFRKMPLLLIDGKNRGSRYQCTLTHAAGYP

SOCS6 = molecular target: T8, SOCS6 (Homo sapiens, UniProt O14544); conditions: for remaining activity at 10 µM: read-out: percent of DMSO vehicle control
T8 construct: made in house; host or cells: HEK293 (transient transfection), unpurified extract
T8 sequence (O14544 1-535): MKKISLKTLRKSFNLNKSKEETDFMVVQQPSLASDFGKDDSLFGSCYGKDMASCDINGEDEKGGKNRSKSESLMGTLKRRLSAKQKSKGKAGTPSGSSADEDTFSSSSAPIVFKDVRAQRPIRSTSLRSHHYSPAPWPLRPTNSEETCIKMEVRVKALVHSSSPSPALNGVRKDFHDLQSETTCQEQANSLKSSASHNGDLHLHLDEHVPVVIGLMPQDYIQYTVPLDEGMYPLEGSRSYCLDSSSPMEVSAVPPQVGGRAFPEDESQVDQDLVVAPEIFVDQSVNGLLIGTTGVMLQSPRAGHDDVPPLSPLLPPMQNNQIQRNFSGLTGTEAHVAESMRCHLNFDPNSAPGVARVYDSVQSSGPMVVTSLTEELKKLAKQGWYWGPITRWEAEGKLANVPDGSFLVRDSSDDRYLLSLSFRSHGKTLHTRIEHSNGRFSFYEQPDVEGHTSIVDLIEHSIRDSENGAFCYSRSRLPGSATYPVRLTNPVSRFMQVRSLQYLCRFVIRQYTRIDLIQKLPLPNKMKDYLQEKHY

STAP2 = molecular target: T9, STAP2 (Homo sapiens, UniProt Q9UGK3)
T9 construct: made in house; host or cells: HEK293 (transient transfection), unpurified extract
T9 sequence (Q9UGK3 1-403): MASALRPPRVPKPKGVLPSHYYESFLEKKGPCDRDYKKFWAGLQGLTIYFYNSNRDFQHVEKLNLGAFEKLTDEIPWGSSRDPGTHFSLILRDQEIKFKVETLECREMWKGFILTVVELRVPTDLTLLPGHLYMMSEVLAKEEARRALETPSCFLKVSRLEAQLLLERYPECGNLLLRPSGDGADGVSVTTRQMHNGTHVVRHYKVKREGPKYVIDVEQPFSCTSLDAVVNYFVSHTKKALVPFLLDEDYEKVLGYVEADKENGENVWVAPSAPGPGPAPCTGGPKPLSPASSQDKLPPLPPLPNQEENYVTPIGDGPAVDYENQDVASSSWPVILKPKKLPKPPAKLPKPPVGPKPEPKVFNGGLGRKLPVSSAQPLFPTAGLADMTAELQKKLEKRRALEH

[1] = read-out: percent of DMSO vehicle control
[2] = primary screen, 10 μM, read-out: percent of DMSO vehicle control

T2 sequence (Q13191 241-343 limits assumed): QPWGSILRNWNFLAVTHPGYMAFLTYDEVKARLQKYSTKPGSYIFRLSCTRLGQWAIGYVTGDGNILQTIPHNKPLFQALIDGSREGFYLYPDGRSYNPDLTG
T5 sequence (P07948 129-226 limits assumed): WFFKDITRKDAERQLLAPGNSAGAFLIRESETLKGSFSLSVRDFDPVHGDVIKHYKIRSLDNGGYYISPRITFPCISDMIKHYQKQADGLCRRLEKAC

Row | SMILES | Kd (SH3BP2) [nM] | percent of DMSO vehicle control (CBLB) [%] | percent of DMSO vehicle control (CSK) [%] | percent of DMSO vehicle control at 10 µM (GRB10; [1]) [%] | remaining activity at 10 µM (LYN) [%] | remaining activity at 10 µM (PLCG1(SH2dom.N-term.)) [%] | remaining activity at 10 µM (SH3BP2) [%] | remaining activity at 10 µM (SLP76) [%] | remaining activity at 10 µM (SOCS6) [%] | percent of DMSO vehicle control at 10 µM (STAP2; [1]) [%] | also measured
1 | CC[C@H](C)[C@H](NC(=O)[C@H](CO)NC(=O)[C@H](CC(C)C)NC(=O)[C@H](CCCNC(=N)N)NC(=O)[C@H](CO)NC(=O)[C@H](CS)NC(C)=O)C(=O)N[C@@H](Cc1ccc(OP(=O)(O)O)cc1)C(=O)N[C@@H](CC(=O)O)C(=O)N[C@@H](CC(N)=O)C(=O)N[C@H](C(=O)N1CCC[C@H]1C(=O)NCC(N)=O)C(C)C [Ac-CSRLSIpYDNVPG-NH2] (Ac-CSRLSI[pY]DNVPG-NH2) | 209 ± 10.1 |  |  |  |  |  |  |  |  |  | 
2 | CC[C@H](C)[C@H](NC(=O)[C@H](CCC(=O)O)NC(=O)[C@H](CCC(=O)O)NC(=O)[C@H](Cc1ccc(OP(=O)(O)O)cc1)NC(C)=O)C(=O)N[C@@H](CCC(=O)O)C(N)=O [Ac-pYEEIE-NH2] (Ac-[pY]EEIE-NH2) |  | 116.1 | 106.4 |  |  |  |  |  |  |  | percent of DMSO vehicle control (GRB10; primary screen, 10 μM): 155.2%; percent of DMSO vehicle control (LYN; primary screen, 10 μM): 38.1±2.4%; percent of DMSO vehicle control (PLCG1(SH2dom.N-term.); primary screen, 10 μM): 42.1%; percent of DMSO vehicle control (SH3BP2; primary screen, 10 μM): 90.0±2.1%; percent of DMSO vehicle control (SLP76; primary screen, 10 μM): 42.0±2.1%; percent of DMSO vehicle control (SOCS6; primary screen, 10 μM): 95.6±6.2%; percent of DMSO vehicle control (STAP2; primary screen, 10 μM): 80.1±5.7%
3 | CC(=O)N[C@@H](Cc1ccc(CP(=O)(O)O)cc1)C(=O)NC1(C(=O)N[C@@H](CC(N)=O)C(=O)NCCCc2c(O)ccc3ccccc23)CCCCC1 [CGP78850] |  | 122.1±4.2 | 119.6±4.5 | 88.5 ± 13.4 | 40 | 109 ± 14.6 | 77.8 ± 0.5 | 44.1 ± 5.3 | 63.3 ± 5.3 | 86 ± 7.4 | 
4 | CC[C@H](C)[C@H](NC(=O)[C@H](CCC(=O)O)NC(=O)[C@H](CCC(=O)O)NC(=O)[C@H](Cc1ccc(OP(=O)(O)O)cc1)NC(=O)/C=C/c1ccc(O)c(O)c1)C(=O)N[C@@H](CCC(=O)O)C(=O)O [Caffeic acid-pYEEIE] (Caffeoyl-[pY]EEIE-OH) | 1020 ± 600 | 32.7±22.6 | 103.0±4.8 | 0.7 ± 0.9 | 0 | 0.3 | 0.9 ± 0.3 | 99.6 ± 4.7 | 8.2 ± 0.1 | 58.7 ± 7.4 | Kd (CBLB): 5700 ± 1400 nM; Kd (GRB10): 480 ± 79 nM; Kd (LYN): 1 ± 0.34 nM; Kd (PLCG1(SH2dom.N-term.)): 180 ± 200 nM; Kd (SOCS6): 1900 ± 240 nM; Kd (STAP2): 23200 nM
5 | O=C(CCl)Nc1cccc(CNC(=O)[C@H](Cc2ccc(OP(=O)(O)O)cc2)NC(=O)Cc2ccc(F)cc2)c1 [MN551] |  | 86.8±3.2 | 105.0 |  |  |  |  |  |  |  | remaining activity at 10 µM (GRB10; [2]): 61.8%; remaining activity at 10 µM (LYN; primary screen, 10 μM): 161%; remaining activity at 10 µM (PLCG1(SH2dom.N-term.); primary screen, 10 μM): 62.8 ± 3.8%; remaining activity at 10 µM (SH3BP2; primary screen, 10 μM): 109%; remaining activity at 10 µM (SLP76; primary screen, 10 μM): 116%; remaining activity at 10 µM (SOCS6; primary screen, 10 μM): 65.2 ± 0.1%; remaining activity at 10 µM (STAP2; [2]): 143%
